# Measured values: PubChem BioAssay (NCI)
#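 How tested: cells in 96-well plates exposed to compound for 48 hours at five concentrations. Abbreviation: GI50, concentration required for 50% inhibition of growth. The concentration for full growth arrest is given as TGI.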
# Columns and labels:
# Experiment in all cases: DTP human tumour cell line panel, 48 h
# [1] = system: M14 melanoma
# [2] = system: CCRF-CEM leukemia
# [3] = system: HCT-15 colon
# [4] = system: RXF 393 renal
# [5] = system: OVCAR-4 ovarian
# [6] = system: U251 CNS
# [7] = system: CAKI-1 renal
# [8] = system: A498 renal
# [9] = system: NCI-H226 lung
# [10] = system: UACC-257 melanoma
Structure (SMILES),TGI [1] [µM],TGI [2] [µM],TGI [3] [µM],TGI [4] [µM],TGI [5] [µM],TGI [6] [µM],TGI [7] [µM],TGI [8] [µM],TGI [9] [µM],TGI [10] [µM],GI50 [2] [µM],GI50 [3] [µM],GI50 [4] [µM],GI50 [5] [µM],GI50 [6] [µM],GI50 [7] [µM],GI50 [8] [µM],GI50 [9] [µM],GI50 [10] [µM],GI50 [1] [µM]
N=C(N)c1ccc(N=Nc2c(O)c(C(=O)Nc3ccccc3)cc3ccccc23)cc1,> 100,5.92,> 48.8,> 68.4,33.1,> 63.1,> 100,> 100,> 100,> 100,,,,,,,,,,
CC1(O)CC23CC(O)C4(O)C(CC(O)C4(C)C)C(C)(O)C2CCC1C3O (configuration not stated),> 100,> 100,> 100,,> 100,> 100,> 100,> 100,> 100,> 100,,,,,,,,,,
CC(C)(C)C(=O)C(N)C(=O)C(C)(C)C,> 100,> 100,> 100,> 100,> 100,> 100,> 100,,,> 100,,,,,,,,,,
Nc1ncnc2c1ncn2CCCNO,> 100,> 100,> 100,> 100,> 100,> 100,> 100,> 100,> 100,> 100,,,,,,,,,,
Cc1cc(S(=O)(=O)NC2=NCc3c(F)cccc3N2)c(S)cc1Cl,> 100,> 100,> 100,> 100,> 100,> 100,> 100,> 100,> 100,> 100,,,,,,,,,,
O=C(CCCCCCCCC(=O)N1C(=O)CC(=O)N(c2ccc(Cl)cc2)C1=S)N1C(=O)CC(=O)N(c2ccc(Cl)cc2)C1=S,> 100,87.1,> 100,> 100,> 100,> 100,> 100,> 100,> 100,> 100,,,,,,,,,,
CC(C)NC(=O)OCCN=C1c2ccccc2C(Br)C(Br)c2ccccc21 (configuration not stated),16.2,1.69,> 69.8,6.66,33.6,25.5,19.7,6.58,33.2,35.8,,,,,,,,,,
O=[N+]([O-])C(/C=C(\Cl)[N+](=O)[O-])=C(Nc1ccccc1)Nc1ccccc1,22.9,5.36,22.3,10.5,20.6,27.6,26.8,31.7,27.4,27.1,,,,,,,,,,
N#CC(c1cc(Cl)ncn1)c1nc2cc(C(F)(F)F)ccc2s1 (configuration not stated),18.7,,13.6,19.7,19.5,17.1,> 100,56.2,92,> 100,,,,,,,,,,
CC[P+](c1ccccc1)(N(C)C)N(C)C,> 100,> 100,> 100,> 100,> 100,> 100,> 100,> 100,> 100,> 100,,,,,,,,,,
C=C(CCC(=O)N(CCc1c[nH]c2ccccc12)C(=O)c1ccccc1CSCC)C(=O)OC,> 100,> 100,> 100,> 100,> 100,> 100,> 100,> 100,> 100,> 100,,,,,,,,,,
CCCCCCCCCCCCCCCCOC[C@H](COC(c1ccccc1)(c1ccccc1)c1ccccc1)O[P+](=S)OC (some centres not stated),> 100,> 100,> 100,> 100,,> 100,> 100,> 100,> 100,> 100,,,,,,,,,,
C[C@]12CC[C@H]3[C@@H](CCC4=C/C(=N/OCCN5CCCCC5)CC[C@@]43C)[C@@H]1CC[C@@H]2O,23.8,26.9,21.2,40.8,58.9,27.1,55.3,,48.4,37.3,,,,,,,,,,
COc1cc2ccc(C(C)NCC#N)cc2cc1OC (configuration not stated),> 100,,> 100,> 100,> 100,> 100,> 100,> 100,> 100,> 100,,,,,,,,,,
O=C(c1ccccc1)C1C(c2ccccc2[N+](=O)[O-])N1C1CCCCC1 (configuration not stated),23.9,,23,17,22.7,18.5,9.5,30.5,34,8.88,,,,,,,,,,
Cc1c(C)c2c(c(N)c1C#N)C(=O)N(NC(=S)Nc1ccccc1)C2=O,> 100,> 100,> 100,> 100,> 100,> 100,88.1,,> 100,> 100,,,,,,,,,,
c1csc(-c2cc(-c3ccsc3)cs2)c1,> 100,> 100,> 100,> 100,> 100,> 100,> 100,> 100,,> 100,,,,,,,,,,
CCOC(=O)C(NC(=O)c1ccccc1)(Nc1ccc(S(=O)(=O)Nc2cc(C)on2)cc1)C(F)(F)F (configuration not stated),> 100,> 100,> 100,> 100,> 10,> 100,> 100,,> 100,> 10,,,,,,,,,,
Cc1c(-c2ccccc2)oc(=O)c2ccccc12,51.2,48.2,54.2,37.7,71.4,42.2,53.9,,40.3,30.7,,,,,,,,,,
COC1=C(OC)C(=O)C(Cc2c(-c3ccccc3)nc3sc(Cl)cn23)=C(C)C1=O,33.7,53,36.1,33.3,18.8,40.1,50.3,47.2,,29.9,,,,,,,,,,
COc1cc(CNc2nc3c(NC(C)=O)cc(C(F)(F)F)cc3nc2-c2ccccc2)cc(OC)c1OC,,> 100,> 100,> 100,> 100,,> 100,,> 100,,,,,,,,,,,
Cc1cc(C)n(C(C)(C(=O)Cc2ccccc2)n2nc(C)cc2C)n1,> 100,,> 100,> 100,> 100,> 100,> 100,> 100,> 100,,,,,,,,,,,
Nc1ncnc2c1ncn2C1C(O)C=C(CO)C1O (configuration not stated),,,> 625,,> 625,,> 625,,> 625,,,,,,,,,,,

Structure (SMILES),TGI [1] [µM],TGI [2] [µM],TGI [3] [µM],TGI [4] [µM],TGI [5] [µM],TGI [6] [µM],TGI [7] [µM],TGI [8] [µM],TGI [9] [µM],TGI [10] [µM],GI50 [2] [µM],GI50 [3] [µM],GI50 [4] [µM],GI50 [5] [µM],GI50 [6] [µM],GI50 [7] [µM],GI50 [8] [µM],GI50 [9] [µM],GI50 [10] [µM],GI50 [1] [µM]
CCOC(=O)/C(=C/c1cn(C(C)=O)c2ccccc12)P(=O)(OC)OC,> 100,68.1,> 100,,> 100,> 100,> 100,52.4,,41.5,,,,,,,,,,
CC1OC23CCCCC2C(C#N)(C#N)C1(C#N)C(=N)O3 (configuration not stated),40.3,46.8,37.6,44.5,,71.5,19.8,61.6,> 100,37.6,,,,,,,,,,
COc1cc(C2C3=C(NC(=O)C2C#N)c2ccc4ccccc4c2OCC3)cc(OC)c1OC (configuration not stated),> 100,> 100,> 100,32.9,> 100,30.4,45.7,44,,> 100,,,,,,,,,,
Oc1ccccc1/C=N/c1nc(-c2ccccc2)cs1,,65,> 100,32.6,> 100,> 100,62.6,> 100,> 100,> 100,19.7,29.4,10.4,33.7,28.5,22.5,77,35.1,44.3,
CCN(CCCl)c1cc(CN(C)C)cc(NC(=O)c2ccc(C(=O)Nc3cccc(N(CCCl)NN)c3)cc2)c1,0.294,0.115,4.89,0.142,0.364,,0.203,,,,,,,,,,,,,
CC(C)(C)[C@H]1NC(=O)CN1C(=O)OCc1ccccc1,> 100,> 100,> 100,> 100,> 100,> 100,,54.9,> 100,> 100,,,,,,,,,,
Cc1cc(C)c(C2=NO[C@@H]3[C@H]2C(=O)C=C2N(Cc4ccccc4)CCO[C@@]23O)c(C)c1,,> 100,> 100,> 100,> 100,> 100,> 100,> 100,> 100,> 100,,,,,,,,,,
CN(C)c1ccc(/C=C2\N=C(c3ccccc3)N(c3nc4ccc(Sc5ccccc5)cc4[nH]3)C2=O)cc1,> 100,> 100,> 100,> 100,> 100,> 100,> 100,> 100,,90.9,,,,,,,,,,
CN(C)CCCNC(=O)N/N=C/c1ccccn1,> 10,> 10,> 10,> 10,> 10,,,> 10,,> 10,,,,,,,,,,
N#Cc1nc(-c2ccsc2)oc1N,> 100,> 100,> 100,> 100,,> 100,> 100,> 100,,> 100,,,,,,,,,,
CC(=O)CCN1CC2CN=NC2(C#N)C1 (configuration not stated),> 100,> 61,> 100,> 100,> 100,> 100,,> 100,> 70,> 100,,,,,,,,,,> 100
c1ccc(CN2CCC(CNc3ncnc4ccccc34)C2)cc1 (configuration not stated),35.4,> 100,> 100,> 100,> 100,> 100,> 100,> 100,> 100,,,,,,,,,,,
C=C(C)C1CCC2(C)C1CCC1(C)C2CCC2C3(C)C4OC(OC4=O)C(C)(C)C3CCC21C (configuration not stated),> 100,> 100,> 100,> 100,,> 100,> 100,> 100,> 100,> 100,,,,,,,,,,
Fc1cccc(C2ON=C(c3ccccc3)N2C23CC4CC(CC(C4)C2)C3)c1 (configuration not stated),> 10,,> 10,> 10,> 10,> 10,> 10,> 10,> 10,> 10,,,,,,,,,,
CN=C1C=C(/N=C2/C=C(N/C(=C\C#N)C(C)(C)O)OC2(C)C)OC1(C)C,> 78.4,> 74,> 100,,> 100,> 100,> 67.1,88.9,> 100,> 100,,,,,,,,,,
O=c1[nH]c(NCCCCCO)nc2nc[nH]c12,> 100,> 100,> 100,,> 100,> 100,> 100,> 100,> 100,> 100,,,,,,,,,,
Clc1ccc(-c2nn3c(COc4ccc(OCc5nnc6sc(-c7ccc(Cl)cc7)nn56)c(Cl)c4)nnc3s2)cc1,> 100,,> 100,44.1,> 100,54.7,75.1,71.1,> 100,> 100,,,,,,,,,,
Cc1cc(C)n(C(=CC(=O)C(Cl)Cl)n2nc(C)cc2C)n1,13.3,4.46,10.7,,> 100,20.4,19.1,> 100,2.56,4.97,,,,,,,,,,
O=C(O)C1C2OC(C(Br)C2Br)C1C(=O)O (configuration not stated),> 100,,> 100,> 100,> 100,> 100,> 100,> 100,> 100,> 100,,,,,,,,,,
CC(C)C(Nc1c2ccccc2[n+](C)c2ccccc12)C(=O)O (configuration not stated),> 100,,> 100,> 100,> 100,> 100,> 100,> 100,> 100,> 100,,,,,,,,,,
CC1(c2ccc(Cl)cc2)c2ccccc2C(=O)N1CCCN1C(=O)c2ccccc2C1=O (configuration not stated),,> 100,> 100,94.5,> 100,> 100,> 100,> 100,63.4,> 100,,,,,,,,,,
Cc1cc(Br)c(O)c(-c2cscn2)c1,44,28.6,18.4,,28.7,,62.6,76.8,,,,,,,,,,,,
COc1cc(-c2cc(OC)c(OC)c3ccc(Br)cc23)c2cc(Br)ccc2c1OC,44.7,,> 100,41,31.1,37.7,> 100,44.9,58.1,92.1,,,,,,,,,,
